# From patent US20240285634A1, “COMPOUND AND METHOD FOR TREATING CHEMOTHERAPY-ASSOCIATED GASTROINTESTINAL SIDE EFFECTS” (ONQUALITY PHARMACEUTICALS CHINA LTD., priority 2021, published 2024)
# Tested on: Chemotherapeutic agent-caused constipation models of Balb/c mice
# Assay: Relieving effect on constipation caused by a chemotherapeutic agent (Examples 202-364)
# Type: in vivo
# Text: Construction of mouse animal models: Chemotherapeutic agent-caused constipation models of Balb/c mice were constructed according to the administration mode and frequency of the chemotherapeutic agent as shown in Table 4. […] Thus, chemotherapeutic agent-caused constipation models of mice are very good models to mimic constipation caused by the chemotherapeutic agent.
# Balb/c mice were fed for 1 week, and then divided into groups. The experiment was divided into a control group, a chemotherapeutic agent group, and a group of the compound as shown in Formula I, each of which comprised 10 mice, to perform the administration experiment, for which the administration dosage, mode, time and frequency were shown in Table 4. The control group: being injected or intragastrically administered with the same solvent as that used in the group of the compound as shown in Formula I (the administration mode and time were shown in Table 4), and then being injected or intragastrically administered with the same solvent as that used in the chemotherapeutic agent group (the administration mode was shown in Table 4); the chemotherapeutic agent group: being injected or intragastrically administered with the same solvent as that used in the group of the compound as shown in Formula I (the administration mode and time was shown in Table 4), and then being injected or intragastrically administered with the chemotherapeutic agent (the type, administration mode and dosage were shown in Table 4); the group of the compound as shown in Formula I: being injected or intragastrically administered with the compound as shown in Formula I (the administration mode and time was shown in Table 4), and then being administered with the chemotherapeutic agent (the administration mode and dosage were shown in Table 4).
# The feces reduction rate was calculated with reference to the method of Ji Eun Kim (Lab Anim Res. 2016 December; 32(4): 231-240.). Feces reduction rate (%)=(the control group−the chemotherapeutic agent group or the group of the compound as shown in Formula I)/the control group*100%
# It is regarded as effective remission when the feces reduction rate of mice in the group of the compound as shown in Formula I is reduced compared with that in the chemotherapeutic agent group.
# The feces amount of mice within 3 hours was observed and recorded every day. At the end of the experiment, the number of mice in the group of the compound as shown in Formula I whose feces reduction rate was lower than that of mice in the chemotherapeutic agent group was recorded. Table 4 lists various animal experiment combinations of chemotherapeutic agents and the compound as shown in Formula I, as well as the corresponding experimental results.
compound,measurement,setting,value
"CN1CCN(c2ccc(Nc3ncc4cc5n(c4n3)C3(CCCCC3)CNC5=O)nc2)CC1 [Compound I, Trilaciclib]",Relative remission rate (%),"Example 296, Irinotecan (CPT-11) intraperitoneal injection 260 mg/kg single, compound intravenous injection 150 mg/kg single, 10 h before chemotherapeutic agent, cycle 8 days",50%
same,Relative remission rate (%),"Example 297, Irinotecan (CPT-11) intraperitoneal injection 260 mg/kg single, compound intravenous injection 150 mg/kg single, 11 h before chemotherapeutic agent, cycle 8 days",50%
same,Relative remission rate (%),"Example 298, Irinotecan (CPT-11) intraperitoneal injection 260 mg/kg single, compound intravenous injection 150 mg/kg single, 12 h before chemotherapeutic agent, cycle 8 days",40%
same,Relative remission rate (%),"Example 299, Irinotecan (CPT-11) intraperitoneal injection 260 mg/kg single, compound intravenous injection 150 mg/kg single, 14 h before chemotherapeutic agent, cycle 8 days",40%
same,Relative remission rate (%),"Example 300, Irinotecan (CPT-11) intraperitoneal injection 260 mg/kg single, compound intravenous injection 150 mg/kg single, 16 h before chemotherapeutic agent, cycle 8 days",40%
same,Relative remission rate (%),"Example 301, Irinotecan (CPT-11) intraperitoneal injection 260 mg/kg single, compound intravenous injection 150 mg/kg single, 18 h before chemotherapeutic agent, cycle 8 days",50%
same,Relative remission rate (%),"Example 302, Irinotecan (CPT-11) intraperitoneal injection 260 mg/kg single, compound intravenous injection 150 mg/kg single, 20 h before chemotherapeutic agent, cycle 8 days",50%
same,Relative remission rate (%),"Example 303, Irinotecan (CPT-11) intraperitoneal injection 260 mg/kg single, compound intravenous injection 150 mg/kg single, 22 h before chemotherapeutic agent, cycle 8 days",40%
same,Relative remission rate (%),"Example 304, Irinotecan (CPT-11) intraperitoneal injection 260 mg/kg single, compound intravenous injection 150 mg/kg single, 24 h before chemotherapeutic agent, cycle 8 days",40%
same,Relative remission rate (%),"Example 305, Irinotecan (CPT-11) intraperitoneal injection 260 mg/kg single, compound intravenous injection 150 mg/kg single, 48 h before chemotherapeutic agent, cycle 8 days",0%
same,Relative remission rate (%),"Example 306, Irinotecan (CPT-11) oral administration 300 mg/kg single, compound intraperitoneal injection 100 mg/kg single, 24 h before chemotherapeutic agent, cycle 10 days",60%
same,Relative remission rate (%),"Example 307, Irinotecan (CPT-11) intramuscular injection 260 mg/kg single, compound intramuscular injection 100 mg/kg single, 1 h before chemotherapeutic agent, cycle 7 days",60%
same,Relative remission rate (%),"Example 308, Irinotecan (CPT-11) intravenous injection 260 mg/kg single, compound oral administration 100 mg/kg single, 12 h before chemotherapeutic agent, cycle 7 days",50%
same,Relative remission rate (%),"Example 309, Fluorouracil 125 (F) and irinotecan 240 (I) mg/kg intravenous injection single, compound intravenous injection 100 mg/kg single, 0.5 h before chemotherapeutic agent, cycle 10 days",40%
same,Relative remission rate (%),"Example 310, Fluorouracil 125 (F) and irinotecan 240 (I) mg/kg intravenous injection single, compound intravenous injection 100 mg/kg single, 4 h before chemotherapeutic agent, cycle 10 days",60%
same,Relative remission rate (%),"Example 311, Fluorouracil 125 (F) and irinotecan 240 (I) mg/kg intravenous injection single, compound intravenous injection 100 mg/kg single, 8 h before chemotherapeutic agent, cycle 10 days",60%
same,Relative remission rate (%),"Example 312, Fluorouracil 125 (F) and irinotecan 240 (I) mg/kg intravenous injection single, compound intravenous injection 100 mg/kg single, 12 h before chemotherapeutic agent, cycle 10 days",70%
same,Relative remission rate (%),"Example 313, Fluorouracil 125 (F) and irinotecan 240 (I) mg/kg intravenous injection single, compound intravenous injection 100 mg/kg single, 24 h before chemotherapeutic agent, cycle 10 days",50%
same,Relative remission rate (%),"Example 314, Fluorouracil 125 (F) and irinotecan 240 (I) mg/kg intravenous injection single, compound intravenous injection 100 mg/kg single, 48 h before chemotherapeutic agent, cycle 10 days",0%
same,Relative remission rate (%),"Example 318, Fluorouracil 125 (F) and irinotecan 240 (I) mg/kg intraperitoneal injection single, compound intraperitoneal injection 100 mg/kg single, 1 h before chemotherapeutic agent, cycle 7 days",40%
same,Relative remission rate (%),"Example 319, Fluorouracil 125 (F) and irinotecan 240 (I) mg/kg intraperitoneal injection single, compound intraperitoneal injection 100 mg/kg single, 12 h before chemotherapeutic agent, cycle 7 days",50%
same,Relative remission rate (%),"Example 322, Fluorouracil 100 (F) and oxaliplatin 5 (O) and irinotecan 100 (I) mg/kg intraperitoneal injection single, compound intraperitoneal injection 300 mg/kg single, 0.5 h before chemotherapeutic agent, cycle 8 days",30%
same,Relative remission rate (%),"Example 323, Fluorouracil 100 (F) and oxaliplatin 5 (O) and irinotecan 100 (I) mg/kg intraperitoneal injection single, compound intraperitoneal injection 300 mg/kg single, 4 h before chemotherapeutic agent, cycle 8 days",30%
same,Relative remission rate (%),"Example 324, Fluorouracil 100 (F) and oxaliplatin 5 (O) and irinotecan 100 (I) mg/kg intraperitoneal injection single, compound intraperitoneal injection 300 mg/kg single, 8 h before chemotherapeutic agent, cycle 8 days",60%
same,Relative remission rate (%),"Example 325, Fluorouracil 100 (F) and oxaliplatin 5 (O) and irinotecan 100 (I) mg/kg intraperitoneal injection single, compound intraperitoneal injection 300 mg/kg single, 12 h before chemotherapeutic agent, cycle 8 days",50%
same,Relative remission rate (%),"Example 326, Fluorouracil 100 (F) and oxaliplatin 5 (O) and irinotecan 100 (I) mg/kg intraperitoneal injection single, compound intraperitoneal injection 300 mg/kg single, 24 h before chemotherapeutic agent, cycle 8 days",40%
same,Relative remission rate (%),"Example 327, Fluorouracil 100 (F) and oxaliplatin 5 (O) and irinotecan 100 (I) mg/kg intraperitoneal injection single, compound intraperitoneal injection 300 mg/kg single, 48 h before chemotherapeutic agent, cycle 8 days",0%
same,Relative remission rate (%),"Example 328, Fluorouracil 100 (F), oxaliplatin 5 (O), irinotecan 100 (I) and tetrahydrofolic acid 100 (L) mg/kg intravenous injection single, compound intravenous injection 100 mg/kg single, 0.5 h before chemotherapeutic agent, cycle 8 days",20%
same,Relative remission rate (%),"Example 329, Fluorouracil 100 (F), oxaliplatin 5 (O), irinotecan 100 (I) and tetrahydrofolic acid 100 (L) mg/kg intravenous injection single, compound intravenous injection 100 mg/kg single, 1 h before chemotherapeutic agent, cycle 8 days",30%
same,Relative remission rate (%),"Example 330, Fluorouracil 100 (F), oxaliplatin 5 (O), irinotecan 100 (I) and tetrahydrofolic acid 100 (L) mg/kg intravenous injection single, compound intravenous injection 100 mg/kg single, 2 h before chemotherapeutic agent, cycle 8 days",30%
same,Relative remission rate (%),"Example 331, Fluorouracil 100 (F), oxaliplatin 5 (O), irinotecan 100 (I) and tetrahydrofolic acid 100 (L) mg/kg intravenous injection single, compound intravenous injection 100 mg/kg single, 3 h before chemotherapeutic agent, cycle 8 days",50%
same,Relative remission rate (%),"Example 332, Fluorouracil 100 (F), oxaliplatin 5 (O), irinotecan 100 (I) and tetrahydrofolic acid 100 (L) mg/kg intravenous injection single, compound intravenous injection 100 mg/kg single, 4 h before chemotherapeutic agent, cycle 8 days",50%
same,Relative remission rate (%),"Example 333, Fluorouracil 100 (F), oxaliplatin 5 (O), irinotecan 100 (I) and tetrahydrofolic acid 100 (L) mg/kg intravenous injection single, compound intravenous injection 100 mg/kg single, 6 h before chemotherapeutic agent, cycle 8 days",40%
same,Relative remission rate (%),"Example 334, Fluorouracil 100 (F), oxaliplatin 5 (O), irinotecan 100 (I) and tetrahydrofolic acid 100 (L) mg/kg intravenous injection single, compound intravenous injection 100 mg/kg single, 8 h before chemotherapeutic agent, cycle 8 days",60%
same,Relative remission rate (%),"Example 335, Fluorouracil 100 (F), oxaliplatin 5 (O), irinotecan 100 (I) and tetrahydrofolic acid 100 (L) mg/kg intravenous injection single, compound intravenous injection 100 mg/kg single, 10 h before chemotherapeutic agent, cycle 8 days",60%
same,Relative remission rate (%),"Example 336, Fluorouracil 100 (F), oxaliplatin 5 (O), irinotecan 100 (I) and tetrahydrofolic acid 100 (L) mg/kg intravenous injection single, compound intravenous injection 100 mg/kg single, 12 h before chemotherapeutic agent, cycle 8 days",60%
same,Relative remission rate (%),"Example 337, Fluorouracil 100 (F), oxaliplatin 5 (O), irinotecan 100 (I) and tetrahydrofolic acid 100 (L) mg/kg intravenous injection single, compound intravenous injection 100 mg/kg single, 14 h before chemotherapeutic agent, cycle 8 days",40%
same,Relative remission rate (%),"Example 338, Fluorouracil 100 (F), oxaliplatin 5 (O), irinotecan 100 (I) and tetrahydrofolic acid 100 (L) mg/kg intravenous injection single, compound intravenous injection 100 mg/kg single, 16 h before chemotherapeutic agent, cycle 8 days",40%
same,Relative remission rate (%),"Example 339, Fluorouracil 100 (F), oxaliplatin 5 (O), irinotecan 100 (I) and tetrahydrofolic acid 100 (L) mg/kg intravenous injection single, compound intravenous injection 100 mg/kg single, 18 h before chemotherapeutic agent, cycle 8 days",40%
same,Relative remission rate (%),"Example 340, Fluorouracil 100 (F), oxaliplatin 5 (O), irinotecan 100 (I) and tetrahydrofolic acid 100 (L) mg/kg intravenous injection single, compound intravenous injection 100 mg/kg single, 20 h before chemotherapeutic agent, cycle 8 days",30%
same,Relative remission rate (%),"Example 341, Fluorouracil 100 (F), oxaliplatin 5 (O), irinotecan 100 (I) and tetrahydrofolic acid 100 (L) mg/kg intravenous injection single, compound intravenous injection 100 mg/kg single, 24 h before chemotherapeutic agent, cycle 8 days",30%
same,Relative remission rate (%),"Example 342, Fluorouracil 100 (F), oxaliplatin 5 (O), irinotecan 100 (I) and tetrahydrofolic acid 100 (L) mg/kg intravenous injection single, compound intravenous injection 100 mg/kg single, 48 h before chemotherapeutic agent, cycle 8 days",0%
same,Relative remission rate (%),"Example 345, Fluorouracil 100 (F), oxaliplatin 5 (O), irinotecan 100 (I) and tetrahydrofolic acid 100 (L) mg/kg intraperitoneal injection single, compound oral administration 100 mg/kg single, 6 h before chemotherapeutic agent, cycle 7 days",60%
same,Relative remission rate (%),"Example 346, Fluorouracil 100 (F), oxaliplatin 5 (O), irinotecan 100 (I) and tetrahydrofolic acid 100 (L) mg/kg intraperitoneal injection single, compound oral administration 100 mg/kg single, 24 h before chemotherapeutic agent, cycle 7 days",40%
same,Relative remission rate (%),"Example 355, Fluorouracil 100 (F), oxaliplatin 5 (O), irinotecan 200 (I) and tetrahydrofolic acid 100 (L) mg/kg oral administration single, compound subcutaneous injection 100 mg/kg single, 0.5 h before chemotherapeutic agent, cycle 7 days",50%
same,Relative remission rate (%),"Example 356, Fluorouracil 100 (F), oxaliplatin 5 (O), irinotecan 200 (I) and tetrahydrofolic acid 100 (L) mg/kg oral administration single, compound subcutaneous injection 100 mg/kg single, 4 h before chemotherapeutic agent, cycle 7 days",50%
same,Relative remission rate (%),"Example 360, Gemcitabine (GEM) intravenous injection 120 mg/kg single, compound oral administration 100 mg/kg single, 24 h before chemotherapeutic agent, cycle 8 days",30%
same,feces reduction rates compared with the chemotherapeutic agent group,"administered before the chemotherapeutic agent, Table 4 and FIG. 4",reduced to different degrees
